The results in this text go back to ChEMBL document CHEMBL3272164, “Compounds with gastric antisecretory activity. 1. Phenoxyalkylamines” (J Med Chem, 1977).

Data set [1] deals with Rattus norvegicus. Kind of data set: Inhibition of histamine-induced gastric acid secretion in rat in perfused stomach preparation at 5 mg/kg, iv after 15 mins. The conditions noted are these: 0.25 h. Type of data set: functional.
Data set [2] has as its system Rattus norvegicus. Kind of data set: Inhibition of histamine-induced gastric acid secretion in rat in perfused stomach preparation at 2.5 mg/kg, iv after 15 mins. Type of data set: functional. The conditions noted are these: 0.25 h.
In data set [3] the test system is Rattus norvegicus. Kind of data set: Toxicity in rat at 5 mg/kg, iv. Type of data set: organism-based. Further details: dose 5 mg/kg, route intravenous. Conditions: in vivo.
The subject of data set [4] is Rattus norvegicus. The experiment in a line: Inhibition of histamine-induced gastric acid secretion in rat in perfused stomach preparation at 1.25 mg/kg, iv after 15 mins. The data set is classed as functional. Conditions: 0.25 h.
In data set [5] the test system is Rattus norvegicus. The experiment in a line: Inhibition of histamine-induced gastric acid secretion in rat in perfused stomach preparation at 0.078 mg/kg, iv after 15 mins. The data set is classed as functional. The conditions noted are these: 0.25 h.
Data set [6] relates to Rattus norvegicus. Kind of data set: Inhibition of histamine-induced gastric acid secretion in iv dosed rat in perfused stomach preparation measured after 15 mins. Type of data set: functional. Conditions: 0.25 h.
Data set [7] concerns Rattus norvegicus. Kind of data set: Inhibition of histamine-induced gastric acid secretion in po dosed rat in ligated stomach preparation administered 1 hr prior to the ligation of the pylorus. Type of data set: functional.

On to `CCN(CC)CCOc1ccc(C(C)=O)cc1CCC1CCCCC1`, for which 5 mg/kg produced 36% inhibition in vivo in the data set with Rattus norvegicus [1].
With `c1ccc(OCCN2CCCCC2)c(CCC2CCCCC2)c1`, the inhibition in vivo (as a rule, the share of the control response that was lost under treatment) at 2.5 mg/kg in the data set with Rattus norvegicus [2] is 50%.
Consider `CC(C)CN1CCN(CCOc2ccccc2CCC2CCCCC2)CC1`, for which the inhibition in vivo at 5 mg/kg with Rattus norvegicus [1] is 51%.
For `CCCCCCCc1ccccc1OCCCNC(C)C.O=C(O)C(=O)O`, in the data set with Rattus norvegicus [3], the Activity result is on record as “Toxic”.
Consider `CCN1CCCC(COc2ccccc2CCC2CCCCC2)C1` (centres undefined), for which, in the data set on Rattus norvegicus [1], the inhibition in vivo at 5 mg/kg turned out to be 57%.
Same read-out and setting: to `CCCCCCCCCc1ccccc1OCCN(CC)CC` belongs 25%.
In turn, `CCN(CC)CCOc1ccccc1CCC1CCCCC1` registered an inhibition in vivo at 5 mg/kg in the data set on Rattus norvegicus [1] of 74%.
In the data set on Rattus norvegicus [1], `CN1CCN(CCOc2ccccc2CCC2CCCCC2)CC1` had an inhibition in vivo at 5 mg/kg of 0%.
`CN(C)CCCOc1ccccc1CCC1CCCCC1` yielded an inhibition in vivo at 5 mg/kg in the data set with Rattus norvegicus [1] of 42%.
In turn, `C(=C\C1CCCCC1)/c1ccccc1OCCN1CCCC1` gave an inhibition in vivo at 1.25 mg/kg in the data set with Rattus norvegicus [4] of 90%.
With `CCCCCCCc1ccccc1OCCNCC.O=C(O)C(=O)O`, the Activity entry in the data set with Rattus norvegicus [3] is listed as “Toxic”.
The compound `CCCCCCc1ccccc1OCCN(CC)CC` showed an inhibition in vivo at 5 mg/kg with Rattus norvegicus [1] of 48%.
In the case of `CCN(CC)CCOc1ccccc1/C=C/C1CCCCC1`, testing at 1.25 mg/kg with Rattus norvegicus [4] gave an inhibition in vivo of 82%.
In the data set with Rattus norvegicus [5], `CN(C)CCOc1ccccc1/C=C/C12CC3CC(CC(C3)C1)C2` (trans isomer) yielded an inhibition in vivo at 0.078 mg/kg of 52%.
In the data set on Rattus norvegicus [2], `CN1CCCCC1COc1ccccc1CCC1CCCCC1` (centres undefined) showed an inhibition in vivo at 2.5 mg/kg of 64%. In the data set with Rattus norvegicus [1], this compound returned an inhibition in vivo at 5 mg/kg of 100%.
For `CCN(CC)CCOc1ccc(F)cc1CCC1CCCCC1`, in the data set on Rattus norvegicus [1], at 5 mg/kg the inhibition in vivo was 95%.
The same measure, in the same setting: the figure for `CCCCCC/C=C/c1ccccc1OCCN1CCCC1` is 50%.
On the same count and under the same terms, to `CCN(CC)CCOc1ccc(Cl)cc1CCC1CCCCC1` belongs 75%.
On to `CN/C(=N\CCSCc1nc[nH]c1C)NC#N` [CIMETIDINE], for which the ED50 (in general, the dose at which the effect has come halfway, by size or by number of responders) with Rattus norvegicus [6] is 0.3 mg/kg; in the data set on Rattus norvegicus [7], 21.5 mg/kg.
Take `CCN(CC)CCOc1ccc(OC)cc1CCC1CCCCC1`: the inhibition in vivo at 5 mg/kg in the data set on Rattus norvegicus [1] worked out at 78%.
The compound `CCCN(CCC)CCOc1ccccc1CCC1CCCCC1` gave an inhibition in vivo at 5 mg/kg in the data set on Rattus norvegicus [1] of 62%.
In the data set on Rattus norvegicus [1], `CN(C)CCOc1ccccc1CCC1CCCCC1` registered an inhibition in vivo at 5 mg/kg of 29%.
Same read-out and setting: the figure for `CC(C)N(CCOc1ccccc1CCC1CCCCC1)C(C)C` is 32%; for `c1ccc(OCCN2CCOCC2)c(CCC2CCCCC2)c1` it is 10%.
Compound `CCCCC/C=C/c1ccccc1OCCN1CCCC1` returned an inhibition in vivo at 5 mg/kg with Rattus norvegicus [1] of 71%.
In turn, `C(=C\C12CC3CC(CC(C3)C1)C2)/c1ccccc1OCCN1CCCC1.Cl` displayed an inhibition in vivo at 0.078 mg/kg with Rattus norvegicus [5] of 97%. Moreover, the results for the ED50 in the data set with Rattus norvegicus [6] and in the data set with Rattus norvegicus [7] were 0.018 mg/kg and 1.5 mg/kg, respectively.
In the data set on Rattus norvegicus [1], `CCCCCCCc1cc(C)ccc1OCCN(CC)CC` returned an inhibition in vivo at 5 mg/kg of 61%.
Regarding `C(=C/C12CC3CC(CC(C3)C1)C2)/c1ccccc1OCCN1CCCC1`, 0.078 mg/kg produced 65% inhibition in vivo in the data set with Rattus norvegicus [5].
`c1ccc(OCCN2CCCC2)c(CCC2CCCCC2)c1` showed an inhibition in vivo at 5 mg/kg in the data set on Rattus norvegicus [1] of 95%.
On the same count and under the same terms, to `c1ccc(N2CCN(CCOc3ccccc3CCC3CCCCC3)CC2)cc1` belongs 0%; to `CCN(CC)CCOc1ccccc1CCCC(C)(C)C`, 50%.
With `c1ccc(OCCN2CCCC2)c(CCC23CC4CC(CC(C4)C2)C3)c1`, in the data set on Rattus norvegicus [5], testing at 0.078 mg/kg gave an inhibition in vivo of 83%. Testing at 1.25 mg/kg in the data set with Rattus norvegicus [4] gave an inhibition in vivo of 100%.
As for `CCCCCCCc1ccccc1OCCN(CC)CC`, the inhibition in vivo at 5 mg/kg in the data set on Rattus norvegicus [1] turned out to be 82%.
Same read-out and setting: the figure for `CCN(CC)CCCOc1ccccc1CCC1CCCCC1` is 66%.
